How the values were obtained:
[1] = system: NS-iPSCs (Noonan syndrome patient-derived induced pluripotent stem cells); test: Chemically directed differentiation of NS-iPSCs into embryoid bodies and neural rosettes, cell morphology; assay type: cell-based, human; conditions: stepwise treatment with both dorsomorphin (5 μM) and SB431542 (10 μM) together; NS-iPSC #4 and #5; compared with natural differentiation and normal control (H9, CRL12)
From the text: Due to the abnormality in the signal transduction system in Noonan syndrome, EBs and neural rosettes naturally differentiated from NS-iPSCs were abnormally developed. To overcome this problem, the present inventors induced chemically directed differentiation of EBs and neural rosettes from NS-iPSCs by using dorsomorphin (DM) and SB431542 according to the schematic diagram of FIG. 18 (FIG. 18 and Table 6). Particularly, the colonies of NS-iPSC #4 and NS-iPSC #5 induced by the same manner as described in Example <2-1> were quartered by using 1 ml insulin syringe. The quartered NS-iPSCs were loaded on ultra-low attachment dish (SPL life sciences Co., Ltd, Korea), which were resuspended in 4 ml of embryoid body differentiation media which was the DMEM/F12 (Invitrogen, USA) containing 10% serum replacement (SR; GIBCO, USA). The resuspended NS-iPSCs were cultured for 4 days to induce the differentiation into NS-EBs. Then, the differentiated NS-EBs were obtained and cultured for 4˜5 days on the matrigel (1:50, BD biosciences, USA) coated dish in the neural rosette media which consists of DMEM/F12 supplemented with N2, B27 and […] of bFGF (FGF2, R&D systems, USA). The generated Noonan syndrome-derived neural rosettes were mechanically selected and placed on the fibronectin (BD biosciences, USA) coated dish, followed by culture in the neural rosette media for 4˜5 days. […]

[2] = system: neural rosettes chemically differentiated from NS-iPSCs; test: mRNA expression of ectoderm, neural rosette and neural marker genes in neural rosettes chemically differentiated from NS-iPSCs (RT-PCR, q-PCR); assay type: cell-based, human; conditions: stepwise treatment with both dorsomorphin (5 μM) and SB431542 (10 μM) together, versus normal control (H9, CRL12)
Procedure: To investigate whether or not the neural marker genes were normally expressed in the neural rosettes chemically differentiated from NS-iPSCs, the mRNA expression levels of the ectoderm genes PAX6, ZIC1, NESTIN, and VIMENTIN, and the NR genes PLZF, NR2F1, HES5, and DACH1, and the neural genes TUJ1, ASCL1, and NF1 were measured in the chemically differentiated NS-EBs. Particularly, the neural rosettes chemically differentiated from NS-iPSCs by the same manner as described in Example <6-1> were prepared. […] The expressions of those genes were observed by RT-PCR at mRNA level. As for the normal control, the neural rosettes chemically differentiated from H9 cell line and CRL12 in Example <6-1> were used. […] The expression of NR2F1 gene was measured by q-PCR at mRNA level. As the control group for the normalization of the expression level, GAPDH gene was used so that the expression was also measured. ΔCt value of each gene was calculated by the difference between Ct value of GAPDH and Ct value of NR2F1 gene. As for the control, the human normal embryonic stem cell line H9 and the human normal fibroblast-derived iPSCs (CRL12) were induced into neural rosettes via chemical treatments as described in Example <6-1>. The expressions of those neural rosettes were compared with the gene expression of NS-NR. The results are presented by the fold change calculated by the mathematical formula 1 above.

## NC(=O)c1ccc(-c2nc(-c3ccc4c(c3)OCO4)c(-c3ccccn3)[nH]2)cc1 [SB431542]
[1]
  cell morphology of the chemically differentiated EBs and neural rosettes: recovered to a normal shape
[2]; mRNA level in NS neural rosettes
  expression of NR2F1: decreased
[2]; mRNA level
  expressions of ectoderm, neural rosette, and neural marker genes: adjusted to the nearly normal level
